Test results from US20260262643A1, “HERBICIDAL BENZOXAZINES” (FMC CORPORATION, priority 2022, published 2026).

Key:
pigweed, palmer [1] = assay: Test A postemergence; format: in vivo, Amaranthus palmeri; details: postemergence, 10 days
In short: (§1)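 Seeds in loam–sand blend received a directed preemergence soil spray of compound in non-phytotoxic solvent with surfactant; postemergence plants (2–10 cm, one- to two-leaf stage) were sprayed with the same formulation. After 10 days in greenhouse, injury was rated visually versus untreated controls, 0 (no effect) to 100 (complete control).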

sedge, umbrella = assay: Test B flooded paddy test; format: in vivo, Cyperus difformis; details: 250 g ai/ha, Flood, 13 days, 0 to 100 scale (0 no effect, 100 complete control)
In short: (§2)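 Percent weed or crop control, judged by eye on a 0–100 scale 13 days post-treatment, reflects compound added to a 3 cm flood maintained over 2-leaf plants in the greenhouse. Missing entries are marked with a dash.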

ragweed [2] = assay: Test A postemergence; format: in vivo, Ambrosia artemisiifolia; details: postemergence, 10 days
In short: as §1

wheat [3] = assay: Test A postemergence; format: in vivo, Triticum aestivum; details: postemergence, 10 days
In short: as §1

horseweed = assay: Test A postemergence; format: in vivo, Erigeron canadensis; details: postemergence, 10 days
In short: as §1

pigweed, palmer [4] = assay: Test A preemergence; format: in vivo, Amaranthus palmeri
In short: as §1

oat, wild [5] = assay: Test A postemergence; format: in vivo, Avena fatua; details: postemergence, 10 days
In short: as §1

goosegrass [6] = assay: Test A preemergence; format: in vivo, Eleusine indica
In short: as §1

barnyardgrass = assay: Test B flooded paddy test; format: in vivo, Echinochloa crus-galli; details: 250 g ai/ha, Flood, 13 days, 0 to 100 scale (0 no effect, 100 complete control)
In short: as §2

kochia [7] = assay: Test A preemergence; format: in vivo, Bassia scoparia
In short: as §1

ryegrass, Italian [8] = assay: Test A preemergence; format: in vivo, Lolium multiflorum
In short: as §1

foxtail, giant [9] = assay: Test A preemergence; format: in vivo, Setaria faberi
In short: as §1

ducksalad = assay: Test B flooded paddy test; format: in vivo, Heteranthera limosa; details: 250 g ai/ha, Flood, 13 days, 0 to 100 scale (0 no effect, 100 complete control)
In short: as §2

soybean [10] = assay: Test A preemergence; format: in vivo, Glycine max
In short: as §1

oat, wild [11] = assay: Test A preemergence; format: in vivo, Avena fatua
In short: as §1

foxtail, giant [12] = assay: Test A postemergence; format: in vivo, Setaria faberi; details: postemergence, 10 days
In short: as §1

wheat [13] = assay: Test A preemergence; format: in vivo, Triticum aestivum
In short: as §1

corn [14] = assay: Test A preemergence; format: in vivo, Zea mays
In short: as §1

blackgrass [15] = assay: Test A postemergence; format: in vivo, Alopecurus myosuroides; details: postemergence, 10 days
In short: as §1

blackgrass [16] = assay: Test A preemergence; format: in vivo, Alopecurus myosuroides
In short: as §1

ryegrass, Italian [17] = assay: Test A postemergence; format: in vivo, Lolium multiflorum; details: postemergence, 10 days
In short: as §1

galium = assay: Test A postemergence; format: in vivo, Galium aparine; details: postemergence, 10 days
In short: as §1

goosegrass [18] = assay: Test A postemergence; format: in vivo, Eleusine indica; details: postemergence, 10 days
In short: as §1

ragweed [19] = assay: Test A preemergence; format: in vivo, Ambrosia artemisiifolia
In short: as §1

corn [20] = assay: Test A postemergence; format: in vivo, Zea mays; details: postemergence, 10 days
In short: as §1

kochia [21] = assay: Test A postemergence; format: in vivo, Bassia scoparia; details: postemergence, 10 days
In short: as §1

soybean [22] = assay: Test A postemergence; format: in vivo, Glycine max; details: postemergence, 10 days
In short: as §1

rice = assay: Test B flooded paddy test; format: in vivo, Oryza sativa; details: 250 g ai/ha, Flood, 13 days, 0 to 100 scale (0 no effect, 100 complete control)
In short: as §2

[23] = 125 g ai/ha, 0 to 100 scale, 0 no effect, 100 complete control
[24] = 500 g ai/ha, visual injury, 0 to 100 scale (0 no effect, 100 complete control)
[25] = 125 g ai/ha, visual injury after 10 days, 0 to 100 scale, 0 is no effect, 100 is complete control
[26] = 500 g ai/ha, 0 to 100 scale (0 no effect, 100 complete control), 10 days

Cc1ccc(-n2cnc(C(C)C)n2)cc1C(=O)N1C[C@H](C)Oc2c(C)cccc21 [Compound 99]
Pigweed, Palmer plant response rating (pigweed, palmer [1]; [23]): 90
Plant response rating, Pigweed, Palmer (pigweed, palmer [1]; [24]): 100
Plant response rating, Sedge, Umbrella (sedge, umbrella): 95
Ragweed plant response rating (ragweed [2]; [23]): 40
Plant response rating, Ragweed (ragweed [2]; [24]): 90
Wheat plant response rating (wheat [3]; [23]): 80
Plant response rating, Wheat (wheat [3]; [24]): 90
Horseweed plant response rating (horseweed; [23]): 70
Plant response rating, Horseweed (horseweed; [24]): 80
Plant response rating, Pigweed, Palmer (pigweed, palmer [4]; [25]): 100
Plant response rating, Pigweed, Palmer (pigweed, palmer [4]; [26]): 100
Oat, Wild plant response rating (oat, wild [5]; [23]): 70
Plant response rating, Oat, Wild (oat, wild [5]; [24]): 90
Plant response rating, Goosegrass (goosegrass [6]; [25]): 100
Plant response rating, Goosegrass (goosegrass [6]; [26]): 100
Plant response rating, Barnyardgrass (barnyardgrass): 35
Plant response rating, Kochia (kochia [7]; [25]): 100
Plant response rating, Kochia (kochia [7]; [26]): 100
Plant response rating, Ryegrass, Italian (ryegrass, Italian [8]; [25]): 90
Plant response rating, Ryegrass, Italian (ryegrass, Italian [8]; [26]): 100
Plant response rating, Foxtail, Giant (foxtail, giant [9]; [25]): 100
Plant response rating, Foxtail, Giant (foxtail, giant [9]; [26]): 100
Plant response rating, Ducksalad (ducksalad): 40
Plant response rating, Soybean (soybean [10]; [25]): 80
Plant response rating, Soybean (soybean [10]; [26]): 100
Plant response rating, Oat, Wild (oat, wild [11]; [25]): 70
Plant response rating, Oat, Wild (oat, wild [11]; [26]): 90
Foxtail, Giant plant response rating (foxtail, giant [12]; [23]): 90
Plant response rating, Foxtail, Giant (foxtail, giant [12]; [24]): 90
Plant response rating, Wheat (wheat [13]; [25]): 30
Plant response rating, Wheat (wheat [13]; [26]): 80
Plant response rating, Corn (corn [14]; [25]): 10
Plant response rating, Corn (corn [14]; [26]): 50
Blackgrass plant response rating (blackgrass [15]; [23]): 90
Plant response rating, Blackgrass (blackgrass [15]; [24]): 90
Plant response rating, Blackgrass (blackgrass [16]; [25]): 80
Plant response rating, Blackgrass (blackgrass [16]; [26]): 90
Ryegrass, Italian plant response rating (ryegrass, Italian [17]; [23]): 50
Plant response rating, Ryegrass, Italian (ryegrass, Italian [17]; [24]): 100
Galium plant response rating (galium; [23]): 100
Plant response rating, Galium (galium; [24]): 100
Goosegrass plant response rating (goosegrass [18]; [23]): 90
Plant response rating, Goosegrass (goosegrass [18]; [24]): 100
Plant response rating, Ragweed (ragweed [19]; [25]): 40
Plant response rating, Ragweed (ragweed [19]; [26]): 80
Corn plant response rating (corn [20]; [23]): 70
Plant response rating, Corn (corn [20]; [24]): 90
Kochia plant response rating (kochia [21]; [23]): 80
Plant response rating, Kochia (kochia [21]; [24]): 90
Soybean plant response rating (soybean [22]; [23]): 100
Plant response rating, Soybean (soybean [22]; [24]): 100
Plant response rating, Rice (rice): 10
